For one assay, the target named is USP28 (Homo sapiens (Human), UniProt Q96RU2). Description: Ubiquitin-Rhodamine 110 Assay for USP28 Activity. Format: biochemical. How it is done: The assay was performed in a final volume of 20 μL in assay buffer containing 20 mM Tris-HCl (pH 8.0, (1M Tris-HCl, pH 8.0 solution; Corning 46-031-CM)), 2 mM CaCl2 (1M Calcium Chloride solution; Sigma #21114) 2 mM BME (2-Mercaptoethanol; Sigma 63689-25ML -F), 0.01% Prionex (0.22 μM filtered, Sigma #G-0411), and 0.01% Triton X-100. Stock compound solutions were stored at −20° C. as 10 mM in DMSO. Up to 1 month prior to the assay, 2 mM test compounds were pre-dispensed into assay plates (Black, low volume; Corning #3820) and frozen at −20° C. Prestamped assay plates were allowed to come to room temperature on the day of the assay. For the screen, 100 nL of 2 mM was pre-dispensed for a final screening concentration of 10 μM (DMSO(fc)=0.5%). […] Plates were incubated stacked for 90 minutes at room temperature before fluorescence was read on the Envision (Excitation at 485 nm and Emission at 535 nm; Perkin Elmer) or on the PheraSTAR (Excitation at 485 nm and Emission at 535 nm; BMG Labtech).
For follow-up studies, the assay was performed in a final volume of 15 μL in assay buffer containing 20 mM Tris-HCl (pH 8.0, (1M Tris-HCl, pH 8.0 solution; Corning 46-031-CM)), 3 mM BME (2-Mercaptoethanol; Sigma 63689-25ML-F), 0.03% BGG (0.22 μM filtered, Sigma, G7516-25G), and 0.01% Triton X-100 (Sigma, T9284-10L). Nanoliter quantities of either an 8-point or 10-point, 3-fold serial dilution in DMSO was pre-dispensed into assay plates (Perkin Elmer, ProxiPlate-384 F Plus) for a final test concentration of either 25 μM to 11 nM or 25 μM to 1.3 nM, respectively. Enzyme USP28, construct USP28 (USP28-5(1-1077)-TEV-6*His; LifeSensors) concentration and incubation times were optimized for the maximal signal-to -background while maintaining initial velocity conditions at a fixed substrate concentration. The final concentration of the enzyme in the assay was 75 pM. […] 5 μL of 2× enzyme was added to assay plates (pre-stamped with compound) preincubated with USP28 for 30 minutes and then 5 μL of 2× Ub-Rh110 was added to assay plates. Plates were incubated stacked for 20 min at room temperature before 5 μL of stop solution was added (final concentration of 10 mM citric acid (Sigma, 251275-500G)). Fluorescence was read on the Envision (Excitation at 485 nm and Emission at 535 nm; Perkin Elmer) or on the PheraSTAR (Excitation at 485 nm and Emission at 535 nm; BMG Labtech).
(§1) For both the USP28 and USP25 assay formats, data were reported as percent inhibition compared with control wells based on the following equation: % inh=1-((FLU-AveLow)/(AveHigh−AveLow)) where FLU=measured Fluorescence, AveLow=average Fluorescence of no enzyme control (n=16), and AveHigh=average Fluorescence of DMSO control (n=16). IC50 values were determined by curve fitting of the standard 4 parameter logistic fitting algorithm included in the Activity Base software package: IDBS XE Designer Model205. Data is fitted using the Levenburg Marquardt algorithm.

The next assay deals with USP25 (Homo sapiens (Human), UniProt Q9UHP3). Description: Ubiquitin-Rhodamine 110 Assay for USP25 Activity. Format: biochemical. How it is done:
The assay was performed in a final volume of 9 μL in assay buffer containing 20 mM Tris-HCl (pH 8.0, (1M Tris-HC1, pH 8.0 solution; Corning 46-031-CM)), 3 mM BME (2-Mercaptoethanol; Sigma 63689-25ML-F), 0.03% BGG (0.22 μM filtered, Sigma, G7516-25G), and 0.01% Triton X-100 (Sigma, T9284-10L). Nanoliter quantities of 10-point, 3-fold serial dilution in DMSO was pre-dispensed into 1536 assay plates (Corning, #3724BC) for a final test concentration of 25 μM to 1.3 nM, top to lowest dose, respectively. Enzyme USP25, construct USP25-His6, (Boston Biochem E-546). Concentration and incubation times were optimized for the maximal signal-to-background while maintaining initial velocity conditions at a fixed substrate concentration. The final concentration of the enzyme in the assay was 75 pM. […] 3 μL of 2× enzyme was added to assay plates (pre-stamped with compound) preincubated with […] for 30 minutes and then 3 μL of 2× Ub-Rh110 was added to assay plates. Plates were incubated for 45 minutes at room temperature before addition of 3 μL of stop solution (final concentration of 10 mM citric acid (Sigma, 251275-500G)). Fluorescence was read on the Envision (Excitation at 485 nm and Emission at 535 nm; Perkin Elmer) or on the PheraSTAR (Excitation at 485 nm and Emission at 535 nm; BMG Labtech).
as §1

In patent US10913753B2, “Thienopyridine carboxamides as ubiquitin-specific protease inhibitors” (FORMA Therapeutics, Inc., priority 2016, dated 2021) one finds IC50 data, which are given here for 38 compounds.

A value given as a limit tells only on which side of the number the result lay.

USP28, sequence (Q96RU2 whole entry): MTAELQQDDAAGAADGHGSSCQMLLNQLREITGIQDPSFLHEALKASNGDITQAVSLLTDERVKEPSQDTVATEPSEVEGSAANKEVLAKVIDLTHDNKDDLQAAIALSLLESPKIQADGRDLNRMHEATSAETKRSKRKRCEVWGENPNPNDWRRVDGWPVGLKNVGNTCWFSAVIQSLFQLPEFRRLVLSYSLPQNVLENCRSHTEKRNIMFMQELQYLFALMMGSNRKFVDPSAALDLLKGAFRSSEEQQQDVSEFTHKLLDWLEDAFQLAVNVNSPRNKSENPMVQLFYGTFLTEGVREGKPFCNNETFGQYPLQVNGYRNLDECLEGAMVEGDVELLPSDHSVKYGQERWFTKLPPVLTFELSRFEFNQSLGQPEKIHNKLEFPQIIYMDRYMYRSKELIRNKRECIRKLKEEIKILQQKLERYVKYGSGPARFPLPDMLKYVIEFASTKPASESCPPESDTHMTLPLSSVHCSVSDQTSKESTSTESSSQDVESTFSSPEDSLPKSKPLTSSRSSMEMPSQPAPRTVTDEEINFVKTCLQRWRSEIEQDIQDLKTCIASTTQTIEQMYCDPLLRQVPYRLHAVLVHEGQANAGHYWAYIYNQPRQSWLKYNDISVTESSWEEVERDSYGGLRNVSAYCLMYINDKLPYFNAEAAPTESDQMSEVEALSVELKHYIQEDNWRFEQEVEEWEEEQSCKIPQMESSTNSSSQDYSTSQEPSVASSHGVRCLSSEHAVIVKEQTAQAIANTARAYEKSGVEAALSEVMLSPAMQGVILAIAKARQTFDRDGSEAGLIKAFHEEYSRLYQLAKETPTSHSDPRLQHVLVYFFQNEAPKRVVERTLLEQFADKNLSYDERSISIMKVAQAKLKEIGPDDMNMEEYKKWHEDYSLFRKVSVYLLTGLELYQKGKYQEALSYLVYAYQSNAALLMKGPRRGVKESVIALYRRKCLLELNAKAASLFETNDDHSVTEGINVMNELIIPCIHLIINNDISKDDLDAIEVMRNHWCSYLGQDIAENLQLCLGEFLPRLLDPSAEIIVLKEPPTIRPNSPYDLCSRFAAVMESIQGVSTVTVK
USP25, sequence (Q9UHP3 whole entry): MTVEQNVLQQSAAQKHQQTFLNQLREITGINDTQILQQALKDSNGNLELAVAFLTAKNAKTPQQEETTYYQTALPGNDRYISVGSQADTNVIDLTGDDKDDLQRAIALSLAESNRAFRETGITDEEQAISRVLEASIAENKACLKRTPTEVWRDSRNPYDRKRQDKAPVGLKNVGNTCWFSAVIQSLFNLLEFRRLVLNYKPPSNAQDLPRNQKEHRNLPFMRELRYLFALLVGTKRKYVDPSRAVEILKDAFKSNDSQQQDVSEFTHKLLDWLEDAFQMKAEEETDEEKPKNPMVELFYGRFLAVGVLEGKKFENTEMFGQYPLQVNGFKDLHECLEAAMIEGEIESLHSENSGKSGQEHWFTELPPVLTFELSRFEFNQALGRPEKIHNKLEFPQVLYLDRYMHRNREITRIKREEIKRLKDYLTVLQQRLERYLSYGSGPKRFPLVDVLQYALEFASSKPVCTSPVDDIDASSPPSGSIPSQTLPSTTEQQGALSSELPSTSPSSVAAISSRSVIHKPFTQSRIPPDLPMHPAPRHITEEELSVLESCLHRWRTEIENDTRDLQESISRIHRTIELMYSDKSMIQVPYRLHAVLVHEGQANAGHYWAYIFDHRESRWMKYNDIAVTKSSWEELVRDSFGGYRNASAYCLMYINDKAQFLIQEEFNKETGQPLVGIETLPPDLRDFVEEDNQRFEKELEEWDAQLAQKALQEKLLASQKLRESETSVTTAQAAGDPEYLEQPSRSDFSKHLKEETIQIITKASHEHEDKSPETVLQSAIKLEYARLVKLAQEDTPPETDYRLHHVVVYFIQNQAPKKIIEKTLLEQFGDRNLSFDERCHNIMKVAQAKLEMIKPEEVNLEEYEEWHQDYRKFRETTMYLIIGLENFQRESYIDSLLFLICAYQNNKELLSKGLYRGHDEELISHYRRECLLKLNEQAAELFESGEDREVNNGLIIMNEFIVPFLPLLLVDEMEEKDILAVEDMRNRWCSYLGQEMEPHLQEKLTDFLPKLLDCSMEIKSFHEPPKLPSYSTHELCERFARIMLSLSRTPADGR

As a reminder, the IC50 is the concentration that gives 50% inhibition. A low value points to greater potency in that assay. `Cc1ccc2c(N)c(C(=O)NCCc3ccc(N4CC[C@@H]5NCC[C@@H]54)cc3)sc2n1` (single isomer, unassigned) [Example I-93]: the half-inhibitory concentration (IC50) against USP28 and against USP25 was below 200 nM throughout.
`Cc1ccc2c(N)c(C(=O)NCCc3ccc(N4CC[C@H]5NCC[C@H]54)cc3)sc2n1` (single isomer, unassigned) [Example I-94]: the IC50 against USP28 and on USP25 was 200 to 2000 nM each time.
As for `Cc1ccc2c(N)c(C(=O)NC[C@@H](C)c3cc(F)c(N4CC5CCC(C4)N5)cc3F)sc2n1` (single isomer, unassigned) [Example I-97], the IC50 against USP28 lay in the range of 200 to 2000 nM; against USP25, 2000 to 10000 nM.
As for `Cc1ccc2c(N)c(C(=O)NC[C@H](C)c3cc(F)c(N4CC5CCC(C4)N5)cc3F)sc2n1` (single isomer, unassigned) [Example I-98], the results for the half-maximal inhibitory concentration (IC50) at USP28 and against USP25 were below 200 nM and 200 to 2000 nM, respectively.
Taken in the same sequence, the figures for `C[C@H](CNC(=O)c1sc2ncc(F)cc2c1N)c1cc(F)c(N2CC3CCC(C2)N3)cc1F` (single isomer, unassigned) [Example I-101] were 2000 to 10000 nM and 2000 to 10000 nM.
For the compound `C[C@@H](CNC(=O)c1sc2ncc(F)cc2c1N)c1cc(F)c(N2CC3CCC(C2)N3)cc1F` (single isomer, unassigned) [Example I-102], the IC50 at USP28 and at USP25 was 2000 to 10000 nM throughout.
Turning to `Cc1ccc2c(N)c(C(=O)NC[C@@H](C)c3ccc(N4CC5CCC(C4)N5)cc3F)sc2n1` (single isomer, unassigned) [Example I-103], the concentration for half-maximal inhibition (IC50) on USP28 and against USP25 was 200 to 2000 nM in each case.
In the case of `Cc1ccc2c(N)c(C(=O)NC[C@H](C)c3ccc(N4CC5CCC(C4)N5)cc3F)sc2n1` (single isomer, unassigned) [Example I-104], the concentration for half-maximal inhibition (IC50) against USP28 and on USP25 was 200 to 2000 nM in each case.
Consider `Cc1ccc2c(N)c(C(=O)NC[C@@H](C)c3ccc(N4CC5CCC(C4)N5)c(F)c3)sc2n1` (single isomer, unassigned) [Example I-105], for which the half-inhibitory concentration (IC50) at USP28 and on USP25 was 200 to 2000 nM throughout.
`Cc1ccc2c(N)c(C(=O)NC[C@H](C)c3ccc(N4CC5CCC(C4)N5)c(F)c3)sc2n1` (single isomer, unassigned) [Example I-106]: the IC50 at USP28 fell in the range of 200 to 2000 nM; at USP25, 2000 to 10000 nM.
For the compound `Cc1ccc2c(N)c(C(=O)NC[C@H](C)c3ccc(N4CCNCC4)cc3)sc2n1` (single isomer, unassigned) [Example I-202], the IC50 at USP28 lay in the range of 200 to 2000 nM.
For `Cc1ccc2c(N)c(C(=O)NCCc3ccc(N4CCNCC4)c(C(F)(F)F)c3)sc2n1` [Compound I-3], the IC50 against USP28 lay within 200 to 2000 nM.
With `Cc1ccc2c(N)c(C(=O)NCCc3cc(F)c(N4CCNCC4)c(F)c3)sc2n1` [Compound I-4], at USP28, the half-inhibitory concentration (IC50) was below 200 nM.
The same measure, in the same setting: the value for `Cc1ccc2c(N)c(C(=O)NCCc3cc(F)c(N4CCNCC4)c(Cl)c3)sc2n1` [Compound I-8] was below 200 nM.
On the same count and under the same terms, under `Cc1nc2sc(C(=O)NCCc3ccc(N4CCNCC4)c(Cl)c3)c(N)c2cc1F` [Compound I-9] stands 200 to 2000 nM; under `Cc1cnc2sc(C(=O)NCCc3ccc(N4CCNCC4)c(Cl)c3)c(N)c2c1` [Compound I-32], 2000 to 10000 nM.
Same read-out and setting: the value for `Cc1ccc2c(N)c(C(=O)NCCc3cc(F)c(N4CCNCC4)c(F)c3F)sc2n1` [Compound I-35] was below 200 nM; that for `Nc1c(C(=O)NCCc2ccc(N3CCNCC3)c(Cl)c2)sc2ncc(F)cc12` [Compound I-39] was 2000 to 10000 nM; that for `Cc1ccc2c(N)c(C(=O)NCCc3c(F)cc(N4CCNCC4)cc3F)sc2n1` [Compound I-42] was 200 to 2000 nM.
Take `Cc1ccc2c(N)c(C(=O)NCCc3cc(F)c(N4CC5CCC(C4)N5)c(F)c3)sc2n1` [Compound I-45]: the 50% inhibitory concentration (IC50) against USP28 was below 200 nM.
Regarding `Cc1nc2sc(C(=O)NCCc3cc(F)c(N4CCNCC4)cc3F)c(N)c2cc1F` [Compound I-46], the IC50 against USP28 was in the range of 200 to 2000 nM.
Still for that read-out and setting: under `CN[C@@H]1CCN(c2cc(F)c(CCNC(=O)c3sc4nc(C)ccc4c3N)cc2F)C1` [Compound I-49] stands below 200 nM.
On the same count and under the same terms, the value for `CN[C@H]1CCN(c2cc(F)c(CCNC(=O)c3sc4nc(C)ccc4c3N)cc2F)C1` [Compound I-50] was 200 to 2000 nM; that for `COc1ccc2c(N)c(C(=O)NCCc3cc(F)c(N4CCNCC4)cc3F)sc2n1` [Compound I-51] was below 200 nM; that for `CCc1nc2sc(C(=O)NCCc3cc(F)c(N4CCNCC4)cc3F)c(N)c2cc1F` [Compound I-55] was below 200 nM.
On the same count and under the same terms, under `Nc1c(C(=O)NCCc2ccc(N3CCNCC3)cc2)sc2nc(Cl)ccc12` [Compound I-57] stands 200 to 2000 nM.
The compound `Cc1ccc2c(N)c(C(=O)NCCc3ccc(N4CC5CNCC(C4)O5)cc3)sc2n1` [Compound I-66] displayed an IC50 against USP28 below 200 nM.
In the case of `Cc1ccc2c(N)c(C(=O)NCCc3ccc(N4CCNCC4)c(C)c3)sc2n1` [Example I-74, 3-Amino-6-methyl-N-(3-methyl-4-(piperazin-1-yl)phenethyl)thieno[2,3-b]pyridine-2-carboxamide], at USP28, the IC50 is below 200 nM.
Same read-out and setting: the value for `Cc1ccc2c(N)c(C(=O)NCCc3ccc(-n4ncc5c4CNC5)c(F)c3)sc2n1` [Example I-80] was 2000 to 10000 nM.
Still for that read-out and setting: under `Cc1ccc2c(N)c(C(=O)NCCc3cc(F)c(C4CCNCC4)cc3F)sc2n1` [Example I-113, 3-Amino-N-(2,5-difluoro-4-(piperidin-4-yl)phenethyl)-6-methylthieno[2,3-b]pyridine-2-carboxamide] stands below 200 nM; under `Nc1c(C(=O)NCCc2ccc(N3CCNCC3)cc2)sc2nc(C3CC3)ccc12` [Example I-114, 3-Amino-6-cyclopropyl-N-(4-(piperazin-1-yl)phenethyl)thieno[2,3-b]pyridine-2-carboxamide], below 200 nM; under `Cc1ccc2c(N)c(C(=O)NCCc3ccc(N4CC[C@@H](N(C)C)C4)cc3)sc2n1` [Example I-117], 200 to 2000 nM.
On the same count and under the same terms, under `Cc1ccc2c(N)c(C(=O)NCCc3ccc(N4CC[C@H](N(C)C)C4)cc3)sc2n1` [Example I-118] stands 200 to 2000 nM; under `Cc1ccc2c(N)c(C(=O)NCCc3ccc(N4CCN(CCN5CCCC5)CC4)cc3)sc2n1` [Example I-119], 2000 to 10000 nM.
`Cc1ccc2c(N)c(C(=O)NCCc3ccc(N4CCn5cncc5C4)cc3)sc2n1` [Example I-120]: the IC50 against USP28 was below 200 nM.
Still for that read-out and setting: the value for `CNc1ccc2c(N)c(C(=O)NCCc3ccc(N4CCNCC4)cc3)sc2n1` [Example I-187] was 200 to 2000 nM; that for `Cc1ccc2c(N)c(C(=O)NC[C@@H](C)c3cc(F)c(N4CCNCC4)cc3F)sc2n1` [Example I-207] was 200 to 2000 nM; that for `Cc1ccc2c(N)c(C(=O)NCCc3cc(F)c(N4CCN[C@H](C)C4)cc3F)sc2n1` [Example I-209, (R)-3-amino-N-(2,5-difluoro-4-(3-methylpiperazin-1-yl)phenethyl) -6-methylthieno[2,3-b]pyridine-2-carboxamide] was 10000 to 25000 nM.
